Reference: ChEMBL document CHEMBL5252618, “Discovery and Biosynthesis of Imidazolium Antibiotics from the Probiotic Bacillus licheniformis” (J Nat Prod, 2023)
Several values for one entry are separate records, joined by “and”; a condition that tells them apart may be missing. Equal entries are not always repeated. Activity calls are given as the source filed them. The rule behind the calls is not given here.

How the values were obtained:
WI-38 = assay: Cytotoxicity against human WI-38 cells at 31.25 to 500 uM incubated for 24 hrs by CellTiter96 aqueous one solution based assay; type: toxicity, cell-based; conditions: wi-38, 24 h, dose 31.25-500 µM
HCT-116 = assay: Cytotoxicity against human HCT-116 cells at 31.25 to 500 uM incubated for 24 hrs by CellTiter96 aqueous one solution based assay; type: functional, cell-based; conditions: dose 31.25-500 µM
HepG2 = assay: Cytotoxicity against human HepG2 cells at 31.25 to 500 uM incubated for 24 hrs by CellTiter96 aqueous one solution based assay; type: functional, cell-based; conditions: dose 31.25-500 µM
Staphylococcus aureus [1] = assay: Antibacterial activity against methicillin-resistant Staphylococcus aureus ATCC 33591 assessed as bacterial growth inhibition incubated for 18 hrs; type: functional
Staphylococcus aureus [2] = assay: Antibacterial activity against methicillin-resistant Staphylococcus aureus USA300 assessed as bacterial growth inhibition incubated for overnight by visual analysis; type: functional
Escherichia coli [3] = assay: Antibacterial activity against Escherichia coli ATCC 25922 assessed as bacterial growth inhibition incubated for 18 hrs; type: functional
[4] = Cytotoxicity against human Chang liver cells at 31.25 to 500 uM incubated for 24 hrs by CellTiter96 aqueous one solution based assay; type: toxicity, cell-based; conditions: dose 31.25-500 µM
Acinetobacter baumannii [5] = assay: Antibacterial activity against Acinetobacter baumannii harboring LPS-deficient mutant lpxC assessed as bacterial growth inhibition incubated for overnight by visual analysis; type: functional
[6] = system: Brevibacterium epidermidis; assay: Antibacterial activity against Brevibacterium epidermidis ATCC35514 assessed as bacterial growth inhibition incubated for overnight by visual analysis; type: functional
A549 = assay: Cytotoxicity against human A549 cells at 31.25 to 500 uM incubated for 24 hrs by CellTiter96 aqueous one solution based assay; type: functional, cell-based; conditions: dose 31.25-500 µM
Acinetobacter baumannii [7] = assay: Antibacterial activity against Acinetobacter baumannii assessed as bacterial growth inhibition incubated for overnight by visual analysis; type: functional
NIH3T3 = assay: Cytotoxicity against mouse NIH3T3 cells at 31.25 to 500 uM incubated for 24 hrs by CellTiter96 aqueous one solution based assay; type: toxicity, cell-based; conditions: nih3t3, 24 h, dose 31.25-500 µM
HT-1080 = assay: Cytotoxicity against human HT-1080 cells at 31.25 to 500 uM incubated for 24 hrs by CellTiter96 aqueous one solution based assay; type: functional, cell-based; conditions: dose 31.25-500 µM
[8] = system: Lacticaseibacillus paracasei; assay: Antibacterial activity against Lacticaseibacillus paracasei subsp.paracasei ATCC25302 assessed as bacterial growth inhibition incubated for overnight by visual analysis; type: functional; conditions: subsp. paracasei ATCC 25302
Bacillus subtilis = assay: Antibacterial activity against Bacillus subtilis NRS-231 assessed as bacterial growth inhibition incubated for 18 hrs; type: functional
Escherichia coli [9] = assay: Antibacterial activity against Escherichia coli MG1655 assessed as bacterial growth inhibition incubated for overnight by visual analysis; type: functional
Acinetobacter baumannii [10] = assay: Synergistic antibacterial activity against Acinetobacter baumannii assessed as potentiation of colistin-induced antibacterial effect by measuring colistin MIC at 0.32 to 84 ug/ml incubated for 24 hrs by checker board assay (reference value: 0.2 ug/ml); type: functional; conditions: dose 0.32-84 µg/ml
Acinetobacter baumannii [11] = assay: Synergistic antibacterial activity against Acinetobacter baumannii assessed as potentiation of colistin-induced antibacterial effect by measuring […] in colistin MIC at 0.32 to 84 ug/ml incubated for 24 hrs by checker board assay relative to control; type: functional; conditions: dose 0.32-84 µg/ml
Escherichia coli [12] = assay: Synergistic antibacterial activity against wild type Escherichia coli MG1655 assessed as potentiation of colistin-induced antibacterial effect by measuring colistin MIC at 0.32 to 84 ug/ml incubated for 24 hrs by checker board assay (reference value: 2.5 ug/ml); type: functional; conditions: dose 0.32-84 µg/ml
Escherichia coli [13] = assay: Synergistic antibacterial activity against wild type Escherichia coli MG1655 assessed as potentiation of colistin-induced antibacterial effect by measuring […] in colistin MIC at 0.32 to 84 ug/ml incubated for 24 hrs by checker board assay relative to control; type: functional; conditions: dose 0.32-84 µg/ml
RAW264.7 = assay: Antiinflammatory activity in mouse RAW 264.7 cells assessed as inhibition of LPS-induced NO production at 10 uM pretreated for 1 hr followed by LPS stimulation and further incubated for 24 hrs by griess reagent based assay; type: functional, cell-based; conditions: time 25.0 hrs

| Structure (SMILES) | Activity (WI-38) | Activity (HCT-116) | Activity (HepG2) | MIC (Staphylococcus aureus [2]) | Activity [4] | MIC (Acinetobacter baumannii [5]) | MIC [6] | Activity (A549) | MIC (Acinetobacter baumannii [7]) [µM] | Activity (NIH3T3) | Activity (HT-1080) | MIC [8] | MIC (Escherichia coli [9]) [µM] | inhibition (RAW264.7) | other results |
| --- | --- | --- | --- | --- | --- | --- | --- | --- | --- | --- | --- | --- | --- | --- | --- |
| Cc1c(C)[n+](CCc2c[nH]c3ccccc23)c(C)n1CCc1c[nH]c2ccccc12 | Non-Toxic | inactive | inactive | 20 µg/mL and 50 µM | Non-Toxic | 40 µg/mL and 100 µM | > 100 µM | inactive | > 100 | Non-Toxic | inactive | 20 µg/mL and 50 µM | > 100 |  | MIC (Staphylococcus aureus [1]): > 50 µM; MIC (Escherichia coli [3]): > 50 µM; MIC (Bacillus subtilis): > 50 µM |
| CCCc1n(CCc2c[nH]c3ccccc23)c(C)c(C)[n+]1CCc1c[nH]c2ccccc12 | Non-Toxic | inactive | inactive | 1.3 µg/mL and 3.13 µM | Non-Toxic | 2.6 µg/mL and 6.25 µM | 1.3 µg/mL and 3.13 µM | inactive | > 100 | Non-Toxic | inactive | 0.7 µg/mL and 1.56 µM | > 100 |  | MIC (Acinetobacter baumannii [10]): 0.05 µg/mL; fold change (FC) (Acinetobacter baumannii [11]): 4; MIC (Escherichia coli [12]): 0.313 µg/mL; fold change (FC) (Escherichia coli [13]): 8 |
| Cc1c(C)[n+](CCc2c[nH]c3ccccc23)c(C)n1CCc1ccccc1 | Non-Toxic | inactive | inactive |  | Non-Toxic |  |  | inactive |  | Non-Toxic | inactive | > 36 µg/mL and > 100 µM |  | inactive |  |
| Cc1c(C)[n+](CCc2c[nH]c3ccccc23)cn1CCc1c[nH]c2ccccc12 | Non-Toxic | inactive | inactive | > 100 µM | Non-Toxic | 38 µg/mL and 100 µM | > 100 µM | inactive | > 100 | Non-Toxic | inactive | 19 µg/mL and 50 µM | > 100 |  |  |
| O=c1[nH]cc(F)c(=O)[nH]1 [FLUOROURACIL] | Toxic |  |  |  | Toxic |  |  |  |  | Toxic |  |  |  |  |  |
| Cc1c(C)[n+](CCc2c[nH]c3ccccc23)c(CC(C)C)n1CCc1c[nH]c2ccccc12 | Non-Toxic | inactive | inactive | > 100 µM | Non-Toxic | 22 µg/mL and 50 µM | > 100 µM | inactive | > 100 | Non-Toxic | inactive | 22 µg/mL and 50 µM | > 100 | inactive |  |
| CCCC(=O)C(C)NCCc1c[nH]c2ccccc12 (stereo not drawn) | Non-Toxic | inactive | inactive |  | Non-Toxic |  |  | inactive |  | Non-Toxic | inactive |  |  |  |  |
| CCCc1n(CCC(C)C)c(C)c(C)[n+]1CCc1c[nH]c2ccccc12 | Non-Toxic | inactive | inactive | > 100 µM | Non-Toxic | 9 µg/mL and 25 µM | > 100 µM | inactive | > 100 | Non-Toxic | inactive | 9 µg/mL and 25 µM | > 100 | Active |  |
| CC(=O)c1cc(C)c(C)n1CCc1c[nH]c2ccccc12 | Non-Toxic | inactive | inactive |  | Non-Toxic |  |  | inactive |  | Non-Toxic | inactive |  |  | Active |  |
| CCCc1c(C)[n+](CCc2c[nH]c3ccccc23)c(CCC)n1CCc1c[nH]c2ccccc12 | Non-Toxic | Active | Active | 11 µg/mL and 25 µM | Non-Toxic | 11 µg/mL and 25 µM | 11 µg/mL and 25 µM | Active | > 100 | Non-Toxic | Active | 6 µg/mL and 12.5 µM | > 100 | Active |  |
| Cc1c(C)[n+](CCc2c[nH]c3ccccc23)cn1CCc1ccccc1 | Non-Toxic | inactive | inactive |  | Non-Toxic |  |  | inactive |  | Non-Toxic | inactive | > 34 µg/mL and > 100 µM |  |  |  |
| NCCc1c[nH]c2ccccc12 [TRYPTAMINE] | Non-Toxic | inactive | inactive |  | Non-Toxic |  |  | inactive |  | Non-Toxic | inactive |  |  |  |  |
| CC(=O)C(C)NCCc1c[nH]c2ccccc12 (stereo not drawn) | Non-Toxic | inactive | inactive | 12 µg/mL and 50 µM | Non-Toxic |  | 12 µg/mL and 50 µM | inactive |  | Non-Toxic | inactive | 6 µg/mL and 25 µM | > 100 |  |  |
| CC(=O)NCCc1ccccc1 | Non-Toxic | inactive | inactive |  | Non-Toxic |  |  | inactive |  | Non-Toxic | inactive |  |  |  |  |
